Laboratory results: the supplement of paper PMC12463676, “Small-molecule dissolution of stress granules by redox modulation benefits ALS models” (Nature Chemical Biology, 2025)

compound: NC(=O)CCCCC1CCSS1 [lipoamide]; test: thermal stability z-score vs DMSO; higher = more thermally stabilized by treatment; settings: HeLa; lipoamide concentration 100 µM; arsenate co-treatment: 1 mM arsenate 1 h
Experimental: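 Cellular thermal proteome profiling in HeLa cells. Cells were treated with 100 µM lipoamide for 1 h, with or without 1 mM arsenate for a further 1 h, then heated to ten temperatures (37-66.3 °C), and soluble protein was quantified by TMT mass spectrometry relative to 0.1% DMSO controls. The thermal stability score (sum of log2 fold changes minus the abundance score) was transformed to a z-score; mean of n = 3 experiments.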
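Further: each temperature applied for 3 min, abundance score taken as mean log2 fold change at the two lowest temperatures, z-score obtained by mean subtraction and division by SD.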

Sequence of UniProt O14662 (O14662 whole entry): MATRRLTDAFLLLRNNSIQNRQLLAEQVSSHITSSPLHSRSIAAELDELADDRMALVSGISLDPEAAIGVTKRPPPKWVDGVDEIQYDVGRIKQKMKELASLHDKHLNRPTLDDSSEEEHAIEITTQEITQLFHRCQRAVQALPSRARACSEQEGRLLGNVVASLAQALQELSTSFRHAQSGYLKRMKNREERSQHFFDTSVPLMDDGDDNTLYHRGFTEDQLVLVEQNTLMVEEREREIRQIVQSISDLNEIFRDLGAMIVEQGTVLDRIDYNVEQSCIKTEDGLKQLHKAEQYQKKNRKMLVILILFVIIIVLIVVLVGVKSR
Sequence of UniProt Q9H871 (Q9H871 whole entry): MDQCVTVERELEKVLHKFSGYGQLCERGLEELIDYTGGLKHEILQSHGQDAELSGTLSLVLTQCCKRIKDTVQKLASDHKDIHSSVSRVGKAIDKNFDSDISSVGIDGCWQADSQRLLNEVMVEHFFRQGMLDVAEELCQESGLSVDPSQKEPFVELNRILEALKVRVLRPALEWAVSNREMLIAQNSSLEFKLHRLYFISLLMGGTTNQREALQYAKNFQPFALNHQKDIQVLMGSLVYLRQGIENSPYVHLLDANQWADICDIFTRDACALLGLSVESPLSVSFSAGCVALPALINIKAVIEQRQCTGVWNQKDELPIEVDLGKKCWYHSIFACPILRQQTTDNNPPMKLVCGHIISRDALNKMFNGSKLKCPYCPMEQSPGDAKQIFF
Sequence of UniProt Q9NXX6 (Q9NXX6 whole entry): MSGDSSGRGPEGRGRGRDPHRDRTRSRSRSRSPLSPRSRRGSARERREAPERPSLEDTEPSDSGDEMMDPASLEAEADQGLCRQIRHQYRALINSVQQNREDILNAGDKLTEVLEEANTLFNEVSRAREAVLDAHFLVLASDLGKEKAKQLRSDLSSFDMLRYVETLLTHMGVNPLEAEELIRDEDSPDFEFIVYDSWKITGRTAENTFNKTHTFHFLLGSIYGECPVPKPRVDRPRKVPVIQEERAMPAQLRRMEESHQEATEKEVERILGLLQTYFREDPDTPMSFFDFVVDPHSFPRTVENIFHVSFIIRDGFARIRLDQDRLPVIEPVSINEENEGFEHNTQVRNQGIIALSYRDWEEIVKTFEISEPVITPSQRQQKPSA
Sequence of UniProt P27144 (P27144 whole entry): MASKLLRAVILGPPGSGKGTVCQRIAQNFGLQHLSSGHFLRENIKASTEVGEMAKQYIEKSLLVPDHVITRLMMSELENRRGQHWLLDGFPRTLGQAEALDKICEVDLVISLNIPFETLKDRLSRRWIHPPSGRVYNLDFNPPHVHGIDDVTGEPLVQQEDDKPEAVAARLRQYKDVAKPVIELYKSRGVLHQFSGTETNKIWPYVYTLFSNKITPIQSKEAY
Sequence of UniProt P26196 (P26196 whole entry): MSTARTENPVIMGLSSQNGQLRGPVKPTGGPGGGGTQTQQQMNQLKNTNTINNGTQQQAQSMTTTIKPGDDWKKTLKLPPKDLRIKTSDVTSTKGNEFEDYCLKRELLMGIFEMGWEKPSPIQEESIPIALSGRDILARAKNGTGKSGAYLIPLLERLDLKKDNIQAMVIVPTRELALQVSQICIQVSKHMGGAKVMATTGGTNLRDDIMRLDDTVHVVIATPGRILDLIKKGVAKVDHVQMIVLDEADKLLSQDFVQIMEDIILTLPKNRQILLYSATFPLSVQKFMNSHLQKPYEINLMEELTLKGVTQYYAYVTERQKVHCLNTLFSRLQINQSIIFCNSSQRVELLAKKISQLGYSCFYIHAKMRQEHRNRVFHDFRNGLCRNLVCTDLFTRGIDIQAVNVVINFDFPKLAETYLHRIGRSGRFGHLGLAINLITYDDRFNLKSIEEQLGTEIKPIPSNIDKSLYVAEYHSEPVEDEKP
Sequence of UniProt Q8N183 (Q8N183 whole entry): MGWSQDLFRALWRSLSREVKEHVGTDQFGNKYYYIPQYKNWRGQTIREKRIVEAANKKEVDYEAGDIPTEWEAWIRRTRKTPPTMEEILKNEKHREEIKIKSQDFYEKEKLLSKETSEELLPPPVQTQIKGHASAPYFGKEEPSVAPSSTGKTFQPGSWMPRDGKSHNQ
Sequence of UniProt O95163 (O95163 whole entry): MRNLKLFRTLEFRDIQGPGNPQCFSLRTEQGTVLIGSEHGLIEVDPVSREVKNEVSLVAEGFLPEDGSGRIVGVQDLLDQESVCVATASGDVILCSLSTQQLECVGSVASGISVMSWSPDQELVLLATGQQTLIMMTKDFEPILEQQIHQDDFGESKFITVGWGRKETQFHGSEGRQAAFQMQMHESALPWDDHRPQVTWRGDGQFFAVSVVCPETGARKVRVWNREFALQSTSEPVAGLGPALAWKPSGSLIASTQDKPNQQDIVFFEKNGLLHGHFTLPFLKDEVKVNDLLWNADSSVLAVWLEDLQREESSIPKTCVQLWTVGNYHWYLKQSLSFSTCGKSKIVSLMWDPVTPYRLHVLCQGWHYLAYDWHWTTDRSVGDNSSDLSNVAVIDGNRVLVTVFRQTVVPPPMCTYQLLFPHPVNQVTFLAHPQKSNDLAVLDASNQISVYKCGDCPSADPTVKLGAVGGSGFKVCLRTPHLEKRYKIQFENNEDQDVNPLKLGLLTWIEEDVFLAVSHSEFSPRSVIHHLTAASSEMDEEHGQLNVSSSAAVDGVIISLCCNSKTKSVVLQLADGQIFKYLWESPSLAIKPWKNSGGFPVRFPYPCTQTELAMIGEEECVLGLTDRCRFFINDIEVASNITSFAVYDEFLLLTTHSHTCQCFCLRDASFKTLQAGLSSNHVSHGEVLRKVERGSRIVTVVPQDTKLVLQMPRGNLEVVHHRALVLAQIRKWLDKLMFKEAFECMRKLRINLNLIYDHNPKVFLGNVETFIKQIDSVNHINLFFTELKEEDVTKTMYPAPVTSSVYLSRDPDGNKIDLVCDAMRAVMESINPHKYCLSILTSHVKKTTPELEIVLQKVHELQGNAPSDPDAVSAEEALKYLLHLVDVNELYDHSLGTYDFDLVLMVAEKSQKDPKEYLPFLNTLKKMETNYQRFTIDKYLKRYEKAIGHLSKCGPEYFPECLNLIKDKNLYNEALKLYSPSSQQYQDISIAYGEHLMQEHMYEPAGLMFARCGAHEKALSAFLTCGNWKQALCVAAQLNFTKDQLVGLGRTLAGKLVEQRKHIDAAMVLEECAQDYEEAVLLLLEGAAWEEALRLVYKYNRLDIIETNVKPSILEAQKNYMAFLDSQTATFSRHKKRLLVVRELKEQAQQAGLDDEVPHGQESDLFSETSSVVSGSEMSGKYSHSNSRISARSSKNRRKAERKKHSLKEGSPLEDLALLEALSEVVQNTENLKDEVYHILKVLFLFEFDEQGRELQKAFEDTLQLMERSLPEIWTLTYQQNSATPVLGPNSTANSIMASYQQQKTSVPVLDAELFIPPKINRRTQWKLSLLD
Sequence of UniProt P49721 (P49721 whole entry): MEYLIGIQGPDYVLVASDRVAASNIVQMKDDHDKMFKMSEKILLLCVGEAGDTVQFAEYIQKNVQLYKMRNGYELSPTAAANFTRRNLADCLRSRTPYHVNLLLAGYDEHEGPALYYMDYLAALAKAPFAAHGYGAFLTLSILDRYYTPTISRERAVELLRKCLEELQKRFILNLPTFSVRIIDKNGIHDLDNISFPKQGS
Sequence of UniProt P01116 (P01116 whole entry, looked up): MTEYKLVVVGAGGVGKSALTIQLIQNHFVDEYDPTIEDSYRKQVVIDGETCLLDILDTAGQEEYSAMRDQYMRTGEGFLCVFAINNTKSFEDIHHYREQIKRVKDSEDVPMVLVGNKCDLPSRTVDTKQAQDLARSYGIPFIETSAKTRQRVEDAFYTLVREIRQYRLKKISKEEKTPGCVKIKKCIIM
Sequence of UniProt Q9NXW2 (Q9NXW2 whole entry): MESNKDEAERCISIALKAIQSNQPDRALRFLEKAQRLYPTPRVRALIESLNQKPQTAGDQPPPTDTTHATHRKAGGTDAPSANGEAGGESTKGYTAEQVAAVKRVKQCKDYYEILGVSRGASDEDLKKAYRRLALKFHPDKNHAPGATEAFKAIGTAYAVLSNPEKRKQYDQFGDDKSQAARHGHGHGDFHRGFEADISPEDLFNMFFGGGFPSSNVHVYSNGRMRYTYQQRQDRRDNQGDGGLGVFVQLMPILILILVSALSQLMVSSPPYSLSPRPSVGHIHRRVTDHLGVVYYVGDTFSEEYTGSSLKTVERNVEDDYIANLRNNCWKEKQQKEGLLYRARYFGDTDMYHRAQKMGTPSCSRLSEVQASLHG
Sequence of UniProt Q8IV38 (Q8IV38 whole entry): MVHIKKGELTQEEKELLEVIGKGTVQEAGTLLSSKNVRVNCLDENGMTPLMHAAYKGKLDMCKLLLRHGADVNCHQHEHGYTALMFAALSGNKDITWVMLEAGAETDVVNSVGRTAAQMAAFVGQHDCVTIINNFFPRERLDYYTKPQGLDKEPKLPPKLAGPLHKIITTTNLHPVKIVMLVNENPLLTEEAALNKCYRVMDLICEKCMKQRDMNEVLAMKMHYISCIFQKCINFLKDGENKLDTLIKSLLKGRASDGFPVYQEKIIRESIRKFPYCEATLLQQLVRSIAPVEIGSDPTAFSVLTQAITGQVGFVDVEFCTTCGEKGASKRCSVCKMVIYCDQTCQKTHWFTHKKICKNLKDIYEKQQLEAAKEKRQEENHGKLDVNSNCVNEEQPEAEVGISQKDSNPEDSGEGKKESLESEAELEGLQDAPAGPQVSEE
Sequence of UniProt Q9BW83 (Q9BW83 whole entry): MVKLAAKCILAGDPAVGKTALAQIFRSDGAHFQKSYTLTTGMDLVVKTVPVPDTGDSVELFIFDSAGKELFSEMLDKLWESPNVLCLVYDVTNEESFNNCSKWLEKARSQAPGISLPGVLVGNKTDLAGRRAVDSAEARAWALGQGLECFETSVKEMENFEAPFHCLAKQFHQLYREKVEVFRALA

Target | thermal stability z-score
FUCA2 (UniProt Q9BTY2) | -0.251
SNAPC3 (UniProt Q92966) | -0.219
CYP20A1 (UniProt Q6UW02) | 0.107
IFT27 (UniProt Q9BW83) | 0.856
IPO4 (UniProt Q8TEX9) | -0.55
EMC7 (UniProt Q9NPA0) | -0.402
BCL7C (UniProt Q8WUZ0) | 0.0654
TANGO6 (UniProt Q9C0B7) | -0.908
ANKZF1 (UniProt Q9H8Y5) | 0.373
TMEM55B (UniProt Q86T03) | 0.572
NFATC2IP (UniProt Q8NCF5) | -0.124
KRAS (UniProt P01116) | 0.168
GNAO1 (UniProt P09471) | 0.151
CTSD (UniProt P07339) | 0.0179
IKBKAP (UniProt O95163) | -0.193
ASH2L (UniProt Q9UBL3) | 0.566
PEPD (UniProt P12955) | 0.359
STX16 (UniProt O14662) | -0.63
ACTR6 (UniProt Q9GZN1) | 0.151
NSMCE4A (UniProt Q9NXX6) | -0.245
THEM4 (UniProt Q5T1C6) | -0.175
RPS7 (UniProt P62081) | 0.514
SYPL1 (UniProt Q16563) | 0.951
SERF1A (UniProt O75920) | -0.0837
DNAJB12 (UniProt Q9NXW2) | -0.267
PARS2 (UniProt Q7L3T8) | -0.928
UBA52 (UniProt P62987) | 1.26
MTMR12 (UniProt Q9C0I1) | 0.611

Target | thermal stability z-score
NUP155 (UniProt O75694) | -0.814
ACSL1 (UniProt P33121) | 0.922
MYH9 (UniProt P35579) | 0.442
VPRBP (UniProt Q9Y4B6) | -0.368
GPD2 (UniProt P43304) | 0.223
PRDX3 (UniProt P30048) | 0.429
NDUFAF2 (UniProt Q8N183) | 0.429
NARS (UniProt O43776) | -0.596
TDP2 (UniProt O95551) | 0.0323
HUS1 (UniProt O60921) | -0.436
SMC4 (UniProt Q9NTJ3) | 0.387
CCAR1 (UniProt Q8IX12) | 0.657
DDX6 (UniProt P26196) | 0.414
RMND5A (UniProt Q9H871) | 0.216
ACTG1 (UniProt P63261) | -0.494
SLC1A5 (UniProt Q15758) | 0.752
ATP6V0D1 (UniProt P61421) | -0.621
DERL1 (UniProt Q9BUN8) | -0.177
TJP2 (UniProt Q9UDY2) | -0.259
PTDSS1 (UniProt P48651) | -1.63
MSN (UniProt P26038) | 0.727
AK4 (UniProt P27144) | 0.119
PSMB2 (UniProt P49721) | 1.49
PAFAH1B2 (UniProt P68402) | 0.526
OTUD5 (UniProt Q96G74) | -0.721
ANKMY2 (UniProt Q8IV38) | 0.0659
RTFDC1 (UniProt Q9BY42) | -1.39

same assay, conditions: HeLa; lipoamide concentration 100 µM; arsenate co-treatment: none

Target | thermal stability z-score
FUCA2 (UniProt Q9BTY2) | -0.214
SNAPC3 (UniProt Q92966) | -0.258
CYP20A1 (UniProt Q6UW02) | 0.633
IFT27 (UniProt Q9BW83) | 0.225
IPO4 (UniProt Q8TEX9) | -0.394
EMC7 (UniProt Q9NPA0) | -0.134
BCL7C (UniProt Q8WUZ0) | 0.0122
TANGO6 (UniProt Q9C0B7) | -0.59
ANKZF1 (UniProt Q9H8Y5) | 0.0149
TMEM55B (UniProt Q86T03) | 0.963
NFATC2IP (UniProt Q8NCF5) | -0.127
KRAS (UniProt P01116) | 0.186
GNAO1 (UniProt P09471) | -0.44
CTSD (UniProt P07339) | -0.0567
IKBKAP (UniProt O95163) | -0.141
ASH2L (UniProt Q9UBL3) | -0.319
PEPD (UniProt P12955) | 0.112
STX16 (UniProt O14662) | 0.276
ACTR6 (UniProt Q9GZN1) | -0.182
NSMCE4A (UniProt Q9NXX6) | -0.35
THEM4 (UniProt Q5T1C6) | -0.235
RPS7 (UniProt P62081) | 0.322
SYPL1 (UniProt Q16563) | -0.0774
SERF1A (UniProt O75920) | 0.743
DNAJB12 (UniProt Q9NXW2) | -0.124
PARS2 (UniProt Q7L3T8) | -0.492
UBA52 (UniProt P62987) | 1.15
MTMR12 (UniProt Q9C0I1) | -0.0556

Target | thermal stability z-score
NUP155 (UniProt O75694) | -0.769
ACSL1 (UniProt P33121) | 0.82
MYH9 (UniProt P35579) | 0.363
VPRBP (UniProt Q9Y4B6) | -0.578
GPD2 (UniProt P43304) | 0.223
PRDX3 (UniProt P30048) | 0.812
NDUFAF2 (UniProt Q8N183) | 0.317
NARS (UniProt O43776) | -0.292
TDP2 (UniProt O95551) | -0.0541
HUS1 (UniProt O60921) | -0.56
SMC4 (UniProt Q9NTJ3) | 1.46
CCAR1 (UniProt Q8IX12) | 0.27
DDX6 (UniProt P26196) | 0.53
RMND5A (UniProt Q9H871) | 0.0656
ACTG1 (UniProt P63261) | -0.484
SLC1A5 (UniProt Q15758) | 0.31
ATP6V0D1 (UniProt P61421) | -0.115
DERL1 (UniProt Q9BUN8) | -0.185
TJP2 (UniProt Q9UDY2) | -0.231
PTDSS1 (UniProt P48651) | -1.23
MSN (UniProt P26038) | 0.377
AK4 (UniProt P27144) | 0.256
PSMB2 (UniProt P49721) | 1.31
PAFAH1B2 (UniProt P68402) | 0.289
OTUD5 (UniProt Q96G74) | 0.294
ANKMY2 (UniProt Q8IV38) | 0.00957
RTFDC1 (UniProt Q9BY42) | -0.367

compound: O=[As]([O-])(O)O.[K+] [potassium arsenate]; test: as above; settings: HeLa; arsenate concentration 1 mM
Experimental: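 Cellular thermal proteome profiling in HeLa cells treated with 1 mM arsenate for 1 h (DMSO pretreatment), heated to ten temperatures (37-66.3 °C). Soluble protein was quantified by TMT mass spectrometry relative to DMSO controls; the thermal stability score was transformed to a z-score; mean of n = 3 experiments.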

Target | thermal stability z-score
FUCA2 (UniProt Q9BTY2) | 1.09
SNAPC3 (UniProt Q92966) | -0.108
CYP20A1 (UniProt Q6UW02) | 0.0905
IFT27 (UniProt Q9BW83) | 0.151
IPO4 (UniProt Q8TEX9) | 0.0408
EMC7 (UniProt Q9NPA0) | -0.101
BCL7C (UniProt Q8WUZ0) | 0.0252
TANGO6 (UniProt Q9C0B7) | 0.475
ANKZF1 (UniProt Q9H8Y5) | 0.0789
TMEM55B (UniProt Q86T03) | 0.592
NFATC2IP (UniProt Q8NCF5) | -0.254
KRAS (UniProt P01116) | 0.184
GNAO1 (UniProt P09471) | -0.313
CTSD (UniProt P07339) | -0.598
IKBKAP (UniProt O95163) | -0.261
ASH2L (UniProt Q9UBL3) | -1.84
PEPD (UniProt P12955) | -0.732
STX16 (UniProt O14662) | 0.553
ACTR6 (UniProt Q9GZN1) | -0.13
NSMCE4A (UniProt Q9NXX6) | -0.055
THEM4 (UniProt Q5T1C6) | -0.626
RPS7 (UniProt P62081) | -0.493
SYPL1 (UniProt Q16563) | 0.425
SERF1A (UniProt O75920) | -0.297
DNAJB12 (UniProt Q9NXW2) | 0.182
PARS2 (UniProt Q7L3T8) | -0.314
UBA52 (UniProt P62987) | -0.00358
MTMR12 (UniProt Q9C0I1) | -0.0618

Target | thermal stability z-score
NUP155 (UniProt O75694) | 0.275
ACSL1 (UniProt P33121) | 0.682
MYH9 (UniProt P35579) | 0.2
VPRBP (UniProt Q9Y4B6) | 0.0129
GPD2 (UniProt P43304) | -0.0843
PRDX3 (UniProt P30048) | -0.448
NDUFAF2 (UniProt Q8N183) | 0.094
NARS (UniProt O43776) | 1.17
TDP2 (UniProt O95551) | 0.242
HUS1 (UniProt O60921) | -0.902
SMC4 (UniProt Q9NTJ3) | 0.763
CCAR1 (UniProt Q8IX12) | -0.106
DDX6 (UniProt P26196) | 1.01
RMND5A (UniProt Q9H871) | 0.156
ACTG1 (UniProt P63261) | -0.572
SLC1A5 (UniProt Q15758) | 0.00339
ATP6V0D1 (UniProt P61421) | -0.134
DERL1 (UniProt Q9BUN8) | -0.00515
TJP2 (UniProt Q9UDY2) | 0.438
PTDSS1 (UniProt P48651) | -0.375
MSN (UniProt P26038) | -0.891
AK4 (UniProt P27144) | -0.724
PSMB2 (UniProt P49721) | 1.08
PAFAH1B2 (UniProt P68402) | -0.469
OTUD5 (UniProt Q96G74) | 1.72
ANKMY2 (UniProt Q8IV38) | 0.0818
RTFDC1 (UniProt Q9BY42) | -1.48
